≈ marks a conversion by molar mass, not a printed value. Read-outs that look alike come from different tables or passages of the source.
Legend:
physchem = assay: physchem
Procedure: An additional critical requirement was that, after reconstitution, the reconstituted formulation must remain sufficiently stable and soluble.
The vial pH after reconstitution (20 ml) can be used to ensure that the appropriate compounding pH was achieved during manufacture. The target reconstitution pH is 9.8 with a range of 9.2-10.2. In some aspects, the concentration after reconstitution is 0.3 mg/ml (6 mg/20 ml).

[1] = Studies with phosphate and glycine buffering agents (Example 3); format: physicochemical; details: buffering agents phosphate (pKa 7.21) and glycine (pKa 9.8)
Source text: For example, and without limiting the foregoing disclosure, the buffering agent may be Tris, lysine, arginine, an ethylenediamine, an imidazole, a 4-(2-Hydroxyethyl)morpholine, a triethanolamine, a glucamine, a deanol (dimethylaminoethanol), phosphate, phosphate buffered saline (PBS), or a combination thereof.

[2] = Stability of glyburide after reconstitution with Tris buffer, HPLC (Example 6); format: physicochemical; details: for Glyburide content (mg/mL) at T0 h / Glyburide content (mg/mL) at T2 h / Glyburide content (mg/mL) at T24 h: +50% excess NaOH, 0.22 um filtered, HPLC; for Recon vial pH: lyophilized formulation +50% excess NaOH
Procedure: The contents of the vial were dissolved by gentle shaking and pH after reconstitution was measured. About 1 mL of sample was withdrawn at 0, 1, 2 and 24 hours post reconstitution and filtered through 0.22 um membrane filters and analyzed by HPLC.

[3] = aqueous buffer, cited from earlier work
[4] = Mock IV infusion: sorption of glyburide to administration sets; format: physicochemical; details: for initial drop in the glyburide concentration: PVC administration sets
Source text: Thus, there was significant unpredictability in how much of the drug product would be administered to a given patient at any given time depending on various factors. […] At lower NaOH:GLY ratios, a longer period of time is required for the drug concentration to recover.

[5] = cited from earlier work
[6] = Glyburide solubility in intravenous dosing solutions; format: physicochemical
[7] = Drug reconstitution and dilution experiments (Example 2); details: vial reconstitution pH above 10.2; 6 mg vial, 20 ml WFI, 500 ml saline bag
[8] = recon diluent 10 mM tris pH 7.99
[9] = recon diluent 10 mM tris pH 8.25

- Solubility (physchem; pH 9.25, aqueous buffer): 480 µg/mL (≈ 972 µM)
- Solubility (physchem; pH 9.37, aqueous buffer): 720 µg/mL (≈ 1460 µM)
- stabilization of glyburide by buffering agent [1]: did not effectively stabilize glyburide
- Glyburide content (mg/mL) at T0 h [2, 8]: 0.29 mg/mL
- Glyburide content (mg/mL) at T2 h [2, 8]: 0.29 mg/mL
- Glyburide content (mg/mL) at T24 h [2, 8]: 0.29 mg/mL
- Glyburide content (mg/mL) at T0 h [2, 9]: 0.29 mg/mL
- Glyburide content (mg/mL) at T2 h [2, 9]: 0.29 mg/mL
- Glyburide content (mg/mL) at T24 h [2, 9]: 0.29 mg/mL
- Recon vial pH ([2]; recon diluent 20 mL 10 mM tris pH 7.99): 8.65
- Recon vial pH ([2]; recon diluent 20 mL 10 mM tris pH 8.25): 8.78
- precipitation of glyburide after reconstitution ([2]; recon pH of 8.65 and 8.78, through 24 hours): No precipitation
- pH in the final dosing solution ([4]; drug product with NaOH:GLY molar ratio of 13.8 reconstituted into saline with a pH of 7): 9.9
- drug sorption to administration components made of PVC or PUR ([4]; formulation of the present disclosure with the specific buffering agents): eliminated
- dip in glyburide concentration ([4]; formulations of the present disclosure, diluted (final dosing) pH less than 7.8, PVC administration sets (FIG. 3)): at least 10%
- initial drop in the glyburide concentration ([4]; prior art formulation, NaOH:GLY ratio 3:1, 1 L saline bag): about 40%
- initial drop in the glyburide concentration ([4]; prior art formulations with varying NaOH:GLY molar ratios, 1 L saline bag): at least 10%
- pH of reconstituted formulation ([4]; prior art glyburide formulations with sufficiently high base to glyburide ratios): ~10
- Solubility ([6]; formulations of the present disclosure): > 15 µg/mL
- Solubility ([6]; prior art intravenous glyburide dosing solutions): < 5.7 µg/mL
- final IV bag pH [7]: greater than 9.2
Structure (SMILES): COc1ccc(Cl)cc1C(=O)NCCc1ccc(S(=O)(=O)NC(=O)NC2CCCCC2)cc1 [glyburide, 5-chloro-N-(4-[N-(cyclohexylcarbamoyl)sulfamoyl]phenethyl)-2-methoxybenzamide]
- prevention of sorption to medical materials by buffering agent [1]: did not prevent sorption to medical materials
- Solubility ([3]; pH 2, 37° C.): 0.07 µg/mL (≈ 0.142 µM)
- Solubility ([3]; pH 3, 37° C.): 0.06 µg/mL (≈ 0.121 µM)
- Solubility ([3]; pH 5, 37° C.): 0.1 µg/mL (≈ 0.202 µM)
- Solubility ([3]; pH 6, 37° C.): 0.62 µg/mL (≈ 1.26 µM)
- Solubility ([3]; pH 7, 37° C.): 5.62 µg/mL (≈ 11.4 µM)
- Solubility ([3]; pH 8, 37° C.): 51.2 µg/mL (≈ 104 µM)
- Solubility ([3]; pH 9, 37° C.): 98.6 µg/mL (≈ 200 µM)
- Solubility ([3]; pH 11.8, 37° C.): 531.6 µg/mL (≈ 1080 µM)
- sorption in mock infusion test (FIG. 1) ([4]; prior art glyburide formulations, various administration materials): significant sorption immediately at the start of infusion
- binding to filter components ([4]; prior art intravenous glyburide formulations, all filter components (data not shown)): readily and extensively binds to all filter components
- Solubility ([5]; all measured pH values from pH 4 to pH 9, Britton-Robinson buffer): below 1 mg/mL
- Solubility ([5]; pH 4, 27° C., Britton-Robinson buffer): 4 µg/mL (≈ 8.1 µM)
- Solubility ([5]; pH 6, 27° C., Britton-Robinson buffer): 5 µg/mL (≈ 10.1 µM)
- Solubility ([5]; pH 7, 27° C., Britton-Robinson buffer): 11 µg/mL (≈ 22.3 µM)
- Solubility ([5]; pH 8, 27° C., Britton-Robinson buffer): 80 µg/mL (≈ 162 µM)
- Solubility ([5]; pH 9, 27° C., Britton-Robinson buffer): 600 µg/mL (≈ 1210 µM)
